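Grown in 96-well plates, cells were treated for 48 hours with each compound at five concentrations. Insufficient inhibition: endpoint recorded as highest concentration tested. GI50 is the concentration that inhibits growth by half.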 Active and inactive are the calls of the source. No stated cut-off is given here; in the data, active = GI50 up to about 1.1 µM and inactive = higher.
Key:
Assay in all cases: NCI anticancer screen, dose series, 48 h
[1] = tested on: DMS-114
[2] = tested on: SNB-78
[3] = tested on: M19-MEL
[4] = tested on: DMS-273
[5] = tested on: RXF 631
[6] = tested on: LXFL 529
[7] = tested on: DLD-1
[8] = tested on: KM-20L2
[9] = tested on: XF498

| SMILES | GI50 [1] | GI50 [2] | GI50 [3] | GI50 [4] | GI50 [5] | GI50 [6] | GI50 [7] | GI50 [8] | GI50 [9] |
| --- | --- | --- | --- | --- | --- | --- | --- | --- | --- |
| O=C(CC(O)(c1ccccc1)c1ccc(Cl)cc1)NC(=O)c1ccccc1O (stereo unspecified) | 6.04 µM (inactive) | 27.1 µM (inactive) | 18.6 µM (inactive) | 13.2 µM (inactive) | 15.6 µM (inactive) | 4.35 µM (inactive) | 11.8 µM (inactive) | 14.8 µM (inactive) |  |
| O=C(Cc1nc2sc3c(c2c(=O)[nH]1)CCCC3)Nc1ccccc1 | > 100 µM (inactive) |  | > 100 µM (inactive) | > 100 µM (inactive) |  | > 100 µM (inactive) |  | > 100 µM (inactive) | > 100 µM (inactive) |
| Oc1cccc(-c2cccc(O)n2)n1 | > 100 µM (inactive) | > 100 µM (inactive) | > 100 µM (inactive) | > 100 µM (inactive) | > 100 µM (inactive) | > 100 µM (inactive) | > 100 µM (inactive) |  |  |
| Cn1nc(-c2cccc(-c3nn(C)/c(=N\CCO)s3)n2)s/c1=N/CCO | > 100 µM (inactive) | 41.6 µM (inactive) | > 100 µM (inactive) | > 100 µM (inactive) |  | > 100 µM (inactive) | > 100 µM (inactive) | > 100 µM (inactive) |  |
| CC(=O)OC1(Sc2ccccc2)CC2[C@H]3COC(C)(C)O[C@H]3CC[C@@]2(C)CC1=O (stereo partly specified) | 27 µM (inactive) | > 100 µM (inactive) | 50.9 µM (inactive) | 39.6 µM (inactive) | 14.4 µM (inactive) | 34.2 µM (inactive) | 65.2 µM (inactive) | 37.5 µM (inactive) | 19.2 µM (inactive) |
| COc1ccc(/N=c2\ssc3c(=S)ssc23)cc1 | 0.959 µM (active) | 34.2 µM (inactive) | 30.2 µM (inactive) | 26.4 µM (inactive) |  | 14.8 µM (inactive) | 15.5 µM (inactive) |  |  |
| Cc1cc(C)c2c(c1)Nc1ccccc1P2c1ccccc1 (stereo unspecified) | > 100 µM (inactive) | 41.8 µM (inactive) |  | 21.7 µM (inactive) |  | 29.2 µM (inactive) | 23.5 µM (inactive) | 30.6 µM (inactive) | 4.86 µM (inactive) |
| CC12C3CC4C5CC(C(C53)[C@@H]1NCc1ccccc1)C42 (stereo partly specified) | > 100 µM (inactive) | > 100 µM (inactive) |  | > 100 µM (inactive) | 84.3 µM (inactive) | > 100 µM (inactive) | > 100 µM (inactive) | 23.2 µM (inactive) | > 100 µM (inactive) |
| COC(=O)n1c(CBr)c(Br)c2ccccc21 | 36.7 µM (inactive) |  | 61.7 µM (inactive) | 46.2 µM (inactive) |  |  | 41.5 µM (inactive) | > 100 µM (inactive) |  |
| CCCCCCCCOCC(O)CO (stereo unspecified) | > 100 µM (inactive) | > 100 µM (inactive) | > 100 µM (inactive) | > 100 µM (inactive) | > 100 µM (inactive) | > 100 µM (inactive) | > 100 µM (inactive) | > 100 µM (inactive) | 45.9 µM (inactive) |
| NCCCCC(=O)c1cccnc1 | > 100 µM (inactive) | > 100 µM (inactive) | > 100 µM (inactive) | > 100 µM (inactive) |  | > 100 µM (inactive) | > 100 µM (inactive) | > 100 µM (inactive) | > 100 µM (inactive) |
| O=c1c(Cl)c(Cl)cnn1CCc1ccncc1 | 14 µM (inactive) | 25.1 µM (inactive) | 15.5 µM (inactive) | 18.6 µM (inactive) |  | 15.8 µM (inactive) | 14.6 µM (inactive) | 18.9 µM (inactive) | 15.5 µM (inactive) |
| C=CCCCn1ccc2ccccc21 | > 100 µM (inactive) |  | > 100 µM (inactive) |  | > 100 µM (inactive) | > 100 µM (inactive) | > 100 µM (inactive) | > 100 µM (inactive) | > 100 µM (inactive) |
| Cc1ccc(NC(=O)/C(=N/NC(=O)CC#N)C2C(=O)N(c3ccccc3)N=C2N)cc1C (stereo unspecified) | > 100 µM (inactive) | > 100 µM (inactive) | > 100 µM (inactive) | > 100 µM (inactive) |  | > 100 µM (inactive) | > 100 µM (inactive) | > 100 µM (inactive) | > 100 µM (inactive) |
| CC(C)(CN1CCCCC1)C(=O)/C=C/c1ccc(Cl)cc1 | 3.65 µM (inactive) | 3.24 µM (inactive) | 6.76 µM (inactive) | 3.52 µM (inactive) | 9.29 µM (inactive) | 2.54 µM (inactive) | 4.49 µM (inactive) | 2.36 µM (inactive) |  |
| CCCCCCCCCCCCCCCCCC(=O)OCC(C[As](=O)(O)O)OC(=O)CCCCCCCCCCCCCCCCC (stereo unspecified) | 17.6 µM (inactive) | 20.4 µM (inactive) | > 100 µM (inactive) | 65.3 µM (inactive) | 36.1 µM (inactive) | 72.9 µM (inactive) | 40 µM (inactive) | > 100 µM (inactive) | 23 µM (inactive) |
| CC(C)C1(O)C(c2ccccc2)=C(c2ccccc2)C(c2ccccc2)=C1c1ccccc1 | 3.4 µM (inactive) | 11.6 µM (inactive) |  | 4.46 µM (inactive) | 3.58 µM (inactive) | 5.19 µM (inactive) | 5.87 µM (inactive) | 8.32 µM (inactive) | 2.96 µM (inactive) |
| C/C(=N/NS(=O)(=O)c1ccccc1)c1cccc[n+]1[O-] | > 100 µM (inactive) | > 100 µM (inactive) | > 100 µM (inactive) | > 100 µM (inactive) | > 100 µM (inactive) | > 100 µM (inactive) | > 100 µM (inactive) | > 100 µM (inactive) | > 100 µM (inactive) |
| COC1=NN2C(OC)(c3ccccc3)c3c(-c4ccccc4)sc(-c4ccccc4)c3C2(c2ccccc2)S1 (stereo unspecified) |  | > 100 µM (inactive) |  | > 100 µM (inactive) | > 100 µM (inactive) | > 100 µM (inactive) | > 100 µM (inactive) |  | > 100 µM (inactive) |
| CC1O[C@@H]2CCCCC(=O)[C@]2(C)[C@H]1C (stereo partly specified) | > 100 µM (inactive) | > 100 µM (inactive) | > 100 µM (inactive) | > 100 µM (inactive) | > 100 µM (inactive) | > 100 µM (inactive) | > 100 µM (inactive) | > 100 µM (inactive) | > 100 µM (inactive) |
| CN(C)CCC1(C2=CCCC2)CC/C(=C\c2ccc(Cl)cc2)C1=O (stereo unspecified) | 6.27 µM (inactive) | 9.59 µM (inactive) | 5.22 µM (inactive) | 10.8 µM (inactive) | 8.69 µM (inactive) | 8.95 µM (inactive) | 7.29 µM (inactive) | 2.43 µM (inactive) | 6.11 µM (inactive) |
